Assay results published in the NIST ThermoML archive (doi:10.1021/je049572f).
Several values for one entry are separate records, joined by “and”; a condition that tells them apart may be missing. Equal entries are not always repeated. Numbers after ± are expanded uncertainties.

Legend:
[1] = 101.33 kPa, Liquid
[2] = xn = mol fraction of the nth substance listed; settings: 101.33 kPa, Liquid

Row | SMILES | mass density ([1]; 303.15 K) | viscosity ([1]; 303.15 K) | mass density ([1]; 313.15 K) | viscosity ([1]; 313.15 K) | mass density ([1]; 323.15 K) | viscosity ([1]; 323.15 K) | mass density ([1]; 333.15 K) | viscosity ([1]; 333.15 K) | mass density ([1]; 343.15 K) | viscosity ([1]; 343.15 K) | mass density ([1]; 353.15 K) | viscosity ([1]; 353.15 K) | further results
1 | CN1CCCC1=O [N-methylpyrrolidone] | 1023.47 ± 3.2 kg/m3 | 1.554 ± 0.053 mPa·s | 1014.55 ± 3.1 kg/m3 | 1.332 ± 0.046 mPa·s | 1005.66 ± 3 kg/m3 | 1.16 ± 0.04 mPa·s | 996.71 ± 2.9 kg/m3 | 1.022 ± 0.036 mPa·s | 987.75 ± 3 kg/m3 | 0.908 ± 0.032 mPa·s | 978.76 ± 3 kg/m3 | 0.813 ± 0.029 mPa·s | –
2 | CN1CCCC1=O [N-methylpyrrolidone] + CCc1ccccc1 | – | – | – | – | – | – | – | – | – | – | – | – | mass density ([2]; 303.15 K, x2 = 0): 1023.47 ± 3.2 kg/m3; viscosity ([2]; 303.15 K, x2 = 0): 1.554 ± 0.053 mPa·s; mass density ([2]; 313.15 K, x2 = 0): 1014.55 ± 3.1 kg/m3; viscosity ([2]; 313.15 K, x2 = 0): 1.332 ± 0.046 mPa·s; mass density ([2]; 323.15 K, x2 = 0): 1005.66 ± 3 kg/m3; viscosity ([2]; 323.15 K, x2 = 0): 1.16 ± 0.04 mPa·s; mass density ([2]; 333.15 K, x2 = 0): 996.71 ± 2.9 kg/m3; viscosity ([2]; 333.15 K, x2 = 0): 1.022 ± 0.036 mPa·s; mass density ([2]; 343.15 K, x2 = 0): 987.75 ± 3 kg/m3; viscosity ([2]; 343.15 K, x2 = 0): 0.908 ± 0.032 mPa·s; mass density ([2]; 353.15 K, x2 = 0): 978.76 ± 3 kg/m3; viscosity ([2]; 353.15 K, x2 = 0): 0.813 ± 0.029 mPa·s
3 | CCc1ccccc1 [ethylbenzene] | 859.95 ± 3.6 kg/m3 | 0.598 ± 0.016 mPa·s | 851.14 ± 3.7 kg/m3 | 0.537 ± 0.015 mPa·s | 842.3 ± 3.8 kg/m3 and 842.27 ± 3.8 kg/m3 | 0.483 ± 0.014 mPa·s | 833.34 ± 4 kg/m3 | 0.437 ± 0.013 mPa·s | 824.26 ± 4.1 kg/m3 | 0.397 ± 0.012 mPa·s | 815.18 ± 4.3 kg/m3 | 0.366 ± 0.012 mPa·s | –
4 | CCc1ccccc1 [ethylbenzene] + O=S1(=O)CCCC1 | – | – | – | – | – | – | – | – | – | – | – | – | mass density ([2]; 303.15 K, x1 = 1): 859.95 ± 3.6 kg/m3; viscosity ([2]; 303.15 K, x1 = 1): 0.598 ± 0.016 mPa·s; mass density ([2]; 313.15 K, x1 = 1): 851.14 ± 3.7 kg/m3; viscosity ([2]; 313.15 K, x1 = 1): 0.537 ± 0.015 mPa·s; mass density ([2]; 323.15 K, x1 = 1): 842.27 ± 3.8 kg/m3; viscosity ([2]; 323.15 K, x1 = 1): 0.483 ± 0.014 mPa·s; mass density ([2]; 333.15 K, x1 = 1): 833.34 ± 4 kg/m3; viscosity ([2]; 333.15 K, x1 = 1): 0.437 ± 0.013 mPa·s; mass density ([2]; 343.15 K, x1 = 1): 824.26 ± 4.1 kg/m3; viscosity ([2]; 343.15 K, x1 = 1): 0.397 ± 0.012 mPa·s; mass density ([2]; 353.15 K, x1 = 1): 815.18 ± 4.3 kg/m3; viscosity ([2]; 353.15 K, x1 = 1): 0.366 ± 0.012 mPa·s
5 | CCCCCCCC [octane] | 695.79 ± 3.1 kg/m3 | 0.472 ± 0.014 mPa·s | 687.59 ± 3.2 kg/m3 | 0.422 ± 0.013 mPa·s | 679.34 ± 3.2 kg/m3 | 0.38 ± 0.012 mPa·s | 670.98 ± 3.3 kg/m3 | 0.343 ± 0.011 mPa·s | 662.59 ± 3.4 kg/m3 | 0.314 ± 0.011 mPa·s | 654.05 ± 3.5 kg/m3 | 0.287 ± 0.01 mPa·s | mass density ([1]; 293.15 K): 703.88 ± 3 kg/m3; viscosity ([1]; 293.15 K): 0.534 ± 0.015 mPa·s; mass density ([1]; 298.15 K): 699.83 ± 3.1 kg/m3; viscosity ([1]; 298.15 K): 0.501 ± 0.014 mPa·s; mass density ([1]; 363.15 K): 645.68 ± 3.5 kg/m3; viscosity ([1]; 363.15 K): 0.261 ± 0.01 mPa·s
6 | CCCCCCCC [octane] + C=Cc1ccccc1 | – | – | – | – | – | – | – | – | – | – | – | – | mass density ([2]; 293.15 K, x2 = 0): 703.88 ± 3 kg/m3; viscosity ([2]; 293.15 K, x2 = 0): 0.534 ± 0.015 mPa·s; mass density ([2]; 298.15 K, x2 = 0): 699.83 ± 3.1 kg/m3; viscosity ([2]; 298.15 K, x2 = 0): 0.501 ± 0.014 mPa·s; mass density ([2]; 303.15 K, x2 = 0): 695.79 ± 3.1 kg/m3; viscosity ([2]; 303.15 K, x2 = 0): 0.472 ± 0.014 mPa·s; mass density ([2]; 313.15 K, x2 = 0): 687.59 ± 3.2 kg/m3; viscosity ([2]; 313.15 K, x2 = 0): 0.422 ± 0.013 mPa·s; mass density ([2]; 323.15 K, x2 = 0): 679.34 ± 3.2 kg/m3; viscosity ([2]; 323.15 K, x2 = 0): 0.38 ± 0.012 mPa·s; mass density ([2]; 333.15 K, x2 = 0): 670.98 ± 3.3 kg/m3; viscosity ([2]; 333.15 K, x2 = 0): 0.343 ± 0.011 mPa·s; mass density ([2]; 343.15 K, x2 = 0): 662.59 ± 3.4 kg/m3; viscosity ([2]; 343.15 K, x2 = 0): 0.314 ± 0.011 mPa·s; mass density ([2]; 353.15 K, x2 = 0): 654.05 ± 3.5 kg/m3; viscosity ([2]; 353.15 K, x2 = 0): 0.287 ± 0.01 mPa·s; mass density ([2]; 363.15 K, x2 = 0): 645.68 ± 3.5 kg/m3; viscosity ([2]; 363.15 K, x2 = 0): 0.261 ± 0.01 mPa·s
7 | C=Cc1ccccc1 [styrene] | 897.45 ± 1.5 kg/m3 | 0.654 ± 0.017 mPa·s | 888.53 ± 1.6 kg/m3 | 0.577 ± 0.016 mPa·s | 879.62 ± 1.6 kg/m3 | 0.513 ± 0.014 mPa·s | 870.64 ± 1.7 kg/m3 | 0.462 ± 0.013 mPa·s | 861.72 ± 1.8 kg/m3 | 0.419 ± 0.013 mPa·s | 852.68 ± 1.9 kg/m3 | 0.381 ± 0.012 mPa·s | mass density ([1]; 293.15 K): 906.29 ± 1.4 kg/m3; viscosity ([1]; 293.15 K): 0.749 ± 0.019 mPa·s; mass density ([1]; 298.15 K): 901.86 ± 1.4 kg/m3; viscosity ([1]; 298.15 K): 0.699 ± 0.018 mPa·s; mass density ([1]; 363.15 K): 843.99 ± 1.9 kg/m3; viscosity ([1]; 363.15 K): 0.349 ± 0.011 mPa·s
8 | O=S1(=O)CCCC1 [sulfolane] | 1260.8 ± 6.4 kg/m3 | 10.07 ± 0.32 mPa·s | 1251.9 ± 6.3 kg/m3 | 7.808 ± 0.25 mPa·s | 1243.36 ± 6.2 kg/m3 | 6.194 ± 0.2 mPa·s | 1234.62 ± 6 kg/m3 | 5.009 ± 0.17 mPa·s | 1225.92 ± 5.9 kg/m3 | 4.126 ± 0.14 mPa·s | 1216.8 ± 5.8 kg/m3 | 3.44 ± 0.12 mPa·s | –
